# Measurements: article PMC7363588, “Mapping of the FGF14:Nav1.6 complex interface reveals FLPK as a functionally active peptide modulating excitability” (Physiological Reports, 2020)
# Values joined by “and” are separate entries in the source; they are usually repeats but may differ in a detail not shown here. Equal entries are not always repeated. “Also recorded” adds a separate entry of the source. Marks after values point to notes of the source that are not given here. Peptide text beside a SMILES is read from it.
# Target: T1, Nav1.6 in the presence of FGF14 (FGF14-1b-GFP) (Homo sapiens, UniProt Q92915)
# T1 construct: expressed in transfected cells
# T1 sequence (Q92915 1-252 isoform Q92915-2): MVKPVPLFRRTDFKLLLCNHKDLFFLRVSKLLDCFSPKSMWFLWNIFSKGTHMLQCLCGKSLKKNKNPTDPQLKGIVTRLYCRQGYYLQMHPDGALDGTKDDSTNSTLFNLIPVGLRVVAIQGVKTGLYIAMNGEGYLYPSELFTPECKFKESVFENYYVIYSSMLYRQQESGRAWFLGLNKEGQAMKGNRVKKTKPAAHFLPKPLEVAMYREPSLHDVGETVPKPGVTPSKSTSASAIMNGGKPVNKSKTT
# Test: Whole-cell patch-clamp, HEK-Nav1.6 cells expressing FGF14-GFP
# Type: cell-based
# Conditions: 50 μM FLPK
# Text: Plasmids used in this study derived from the following clones: human FGF14‐1b isoform (accession number: NM_175929.2) and human Nav1.6 (accession number: NM_014191.3). The CLuc‐FGF14, CD4‐Nav1.6‐NLuc, constructs and the pcDNA3.1 vector (Invitrogen, Carlsbad, CA) were engineered and characterized as previously described (Goetz et al., 2009; Shavkunov et al., 2012,2013,2015; Ali et al., 2016, 2018; Wadsworth et al., 2019). The plasmid pGL3 expressing full length Firefly (Photinus pyralis) luciferase was a gift from Dr. P. Sarkar (Department of Neurology, UTMB). For protein purification studies, cDNAs encoding FGF14‐1b (accession number NP_787125; aa 64–252) or the C‐terminal tail of Nav1.6 (accession number #NP_001171455; aa 1756–1939) were subcloned into suitable pET bacterial expression vectors (pET28a‐FGF14; pET30a‐Nav1.6) with a 6X His‐tag at the N‐terminal site; these plasmids were a gift of Dr. Moosa Mohammadi (NYU, Langone Medical Center). The mutation coding for FGF14^V160A was generated by site‐directed mutagenesis and PCR using FGF14‐1b as a template described previously (Ali et al., 2016). For electrophysiological studies FGF14‐GFP (human) and FGF14‐ΔNT‐GFP (human) were cloned into the GFP plasmid (pQBI‐fC2; Quantum Biotechnology Inc., Montreal, Canada) as previously described.
# HEK293 cells were maintained in DMEM and F‐12 (Invitrogen, Carlsbad, CA), supplemented with 0.05% glucose, 0.5 mM pyruvate, 10% fetal bovine serum, 100 units/ml penicillin, and 100 µg/ml streptomycin (Invitrogen), and incubated at 37 °C with 5% CO2. HEK293 cells stably expressing the human Nav1.6 channel (hereafter referred to as HEK‐Nav1.6 cells) were maintained similarly except for the addition of 500 μg/ml G418 (Invitrogen) to maintain stable Nav1.6 expression. Cells were transfected at 80%–90% confluence with equal amount (1 μg each) of plasmid pairs using Lipofectamine 2000 (Invitrogen) according to manufacturer's instructions. HEK‐Nav1.6 cells were washed and replated at very low density prior to electrophysiological recordings (Ali et al., 2016, 2018; Scala et al., 2018; Wadsworth et al., 2019).
# HEK‐Nav1.6 cells transfected with GFP or FGF14‐GFP were plated at low density on glass cover slips for 3–4 hr and subsequently transferred to the recording chamber. Recordings were performed at room temperature (20–22°C) 24 hr posttransfection using a MultiClamp 700B amplifier (Molecular Devices, Sunnyvale, CA). The composition of recording solutions consisted of the following salts; extracellular (mM): 140 NaCl, 3 KCl, 1 MgCl2, 1 CaCl2, 10 HEPES, 10 glucose, pH 7.3; intracellular (mM): 130 CH3O3SCs, 1 EGTA, 10 NaCl, 10 HEPES, pH 7.3. Membrane capacitance and series resistance were estimated by the dial settings on the amplifier and compensated for electronically by 70%–75%. Data were acquired at 20 kHz and filtered at 5 kHz prior to digitization and storage. All experimental parameters were controlled by Clampex 9.2 software (Molecular Devices) and interfaced to the electrophysiological equipment using a Digidata 1,200 analog‐digital interface (Molecular Devices). Voltage‐dependent inward currents for HEK‐Nav1.6 cells were evoked by depolarization to test potentials between −100 mV and +60 mV from a holding potential of −70 mV followed by a voltage prestep pulse of −120 mV (Nav1.6). Steady‐state (fast) inactivation of Nav channels was measured with a paired‐pulse protocol. From the holding potential, cells were stepped to varying test potentials between −120 mV (Nav1.6) and +20 mV (prepulse) prior to a test pulse to −20 mV.
# Current densities were obtained by dividing Na^+ current (INa) amplitude by membrane capacitance. Current–voltage relationships were generated by plotting current density as a function of the […]. Conductance (GNa) was calculated by the following equation: GNa=INa/Vm‐Erev where INa ^+ is the current amplitude at voltage Vm, and Erev is the Na^+ reversal potential. […]
smiles,measurement,setting,value
CC(=O)N[C@@H](Cc1ccccc1)C(=O)N[C@@H](CC(C)C)C(=O)N1CCC[C@H]1C(=O)N[C@@H](CCCCN)C(N)=O [FLPK] (Ac-FLPK-NH2),Peak density (I Na),"FGF14-GFP, at −10 mV, mean ± SEM (n = 21), DMSO −16.8 ± 3.3, p < .05 vs FGF14-GFP (DMSO)",−49.6 ± 7.2 pA/pF and −49.6 ± 7.2 (21) ^c pA/pF
same,Kact,"FGF14-GFP, mean ± SEM (n = 11), DMSO 5.7 ± 0.4","5.7 ± 0.5 (11) ^h,i mV"
same,Activation (V1/2),"FGF14-GFP, mean ± SEM (n = 11), DMSO −16.6 ± 1.0",−20.8 ± 1.5 mV and −20.8 ± 1.5 (11) mV
same,Steady-state Inactivation (V1/2),"FGF14-GFP, mean ± SEM (n = 11 in Table 3; n = 14 in text), DMSO −54.9 ± 1.1",−59.2 ± 2.1 (11) mV
same,Kinact,"FGF14-GFP, mean ± SEM (n = 14), DMSO 5.9 ± 0.9",5.9 ± 0.6 (14) mV
same,shift of V1/2 of activation vs DMSO control,"FGF14 wild type, hyperpolarizing direction",−4 mV
same,effect on FGF14-dependent phenotypes of Nav1.6 currents,HEK-Nav1.6 FGF14-GFP,effectively restored I Na to values that were statistically comparable to the GFP + DMSO control; also recorded: inhibited previously reported modulatory effects of FGF14 (1b isoform) on Nav1.6 currents
